Reference: PMC6422358 (Cell, 2018)

Molecular target: GST-CCNT1 (AA 1–300) (Homo sapiens, UniProt O60563)
Assay: AlphaLISA disruption of CCNT1-AFF4 peptide interaction
Format: binding

Sequence of GST-CCNT1 (AA 1–300) (O60563 1-300): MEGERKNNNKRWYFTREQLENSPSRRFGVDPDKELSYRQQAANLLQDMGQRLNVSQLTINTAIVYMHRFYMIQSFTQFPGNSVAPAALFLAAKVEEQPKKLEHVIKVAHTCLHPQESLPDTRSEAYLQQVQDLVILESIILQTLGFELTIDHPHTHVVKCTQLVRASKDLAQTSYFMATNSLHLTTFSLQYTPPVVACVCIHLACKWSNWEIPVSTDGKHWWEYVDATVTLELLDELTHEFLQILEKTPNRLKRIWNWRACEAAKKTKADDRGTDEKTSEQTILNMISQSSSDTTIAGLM

Ki: 3.48 µM
Compound: COc1cccc(C(=O)/C=C(\O)C(=O)Nc2cc(Cl)ccc2C)c1 [4a, (2Z)-N-(5-Chloro-2-methylphenyl)-2-hydroxy-4-(3-methoxyphenyl)-4-oxo-2butenamide]
